Experimental data: patent US20240425938A1, “COMPOSITIONS AND METHODS FOR CHAR[…] FREQUENCY MUTATIONS” (The Broad Institute, Inc., priority 2022, published 2024)

Test system: P. aeruginosa isolates
Assay type: cell-based, Pseudomonas aeruginosa

Row | Structure (SMILES) | Antibiotic resistance profile of isolates
1 | CC(C)(O/N=C(\C(=O)N[C@@H]1C(=O)N2C(C(=O)[O-])=C(C[n+]3ccccc3)CS[C@H]12)c1csc(N)n1)C(=O)O [ceftazidime] | resistance
2 | C[C@@H](O)[C@H]1C(=O)N2C(C(=O)O)=C(S[C@@H]3CN[C@H](C(=O)N(C)C)C3)[C@H](C)[C@H]12 [meropenem] | resistance
